Measured values published in patent publication US5958906A, “Phospholipid derivatives containing higher elements of the fifth main group” (ASTA-Medica Aktiengesellschaft, priority 1992, dated 1999).
≈ marks a conversion by molar mass, not a printed value. Where a name gives a salt, the structure may show the parent alone.

Legend:
[1] = tested on: tumors of the milk inguinal induced by Dimethylbenzanthracen (DMBA); assay: DMBA in vivo: tumors of the milk inguinal induced chemically by Dimethylbenzanthracen, growth inhibition index; design: species or system female test rats; details: orally, >100 = tumor regression
Method: (§1) The substances were administered orally in solution with the help of an esophagus probe (respective dosages in parenthesis).
(§2) Indicated is the growth inhibition index (Wachstumshemmungsindex WHI) in percent which was reached and which can be calculated as follows: [formula] with WC =median tumor weight difference in the reference group based on day 0
(§3) Wt =corresponding value for the treated group
(§4) Values exceeding 100 indicate tumor regressions in relation to the starting size of the tumor. […] Values below 0 indicate that the tumor growth was stimulated. KB in vivo represents a tumor model in which KB cells are transplanted subcutaneously into naked NMRI mice. DMBA in vivo represents a tumor model in which tumors of the milk inguinal were induced chemically in female test rats by administering Dimethylbenzanthracen (DMBA). EC90 values which exceed 10 are considered ineffective.

KB cells [2] = assay: Soft-Agar-Colony-Assay with KB cells in vitro; assay type: cell-based; details: colony formation inhibited up to 90%, effective criterion EC90 <10 μg/ml; for IC90: Homo sapiens
Method: Tests with KB cells were carried out as a Soft-Agar-Colony-Assay in accordance with Salmon and Hamburger, N. Engl.
as §4

[3] = tested on: Leishmania mexicana (promastigotes); assay: Inhibiting effect on Leishmania mexicana (promastigotes); assay type: cell-based; details: partially mean values of two values
Method: Tests measuring the inhibiting effect on Leishmania mexicana (promastigotes) were conducted in accordance with the procedures set forth in R. F. Stieger et al., European Journal of Biochemistry, Vol.105 (1980), pp.163-175 and D. T. Hardt, and F. R. Opperdoes, Molecular and Biochemical Parasitology Vol. 113 (1984), pp. 159-172.
Inhibiting effect on Leishmania mexicana (promastigotes),
indicated as EC90 values (partially mean values of two values)

L1210-cell = L1210-cell culture experiment; assay type: cell-based; details: 90% growth inhibition in vitro vs control
Description: The EC90 is the concentration of an anti-tumor substance in μg/ml which inhibits the growth of cancer cells by 90% in vitro compared to a control experiment without addition of the anti-tumor substance.

KB cells [4] = assay: KB in vivo: KB cells transplanted subcutaneously into naked NMRI mice, growth inhibition index; details: orally, >100 = tumor regression
Method: as §1, §2, §3, §4

[5] = LD50 on single administration per os in the mouse; details: in vivo, po

SMILES	EC90 (KB cells in vitro) (KB cells [2])	IC90 (KB cells [2])	further results
CCCCCCCCCCCCCCCCCCOCC(COP(=O)([O-])OCC[As+](C)(C)C)OC (racemic) [Example 24, 1-0-Octadecyl-2-0-methyl-rac-glycerophosphoarsenocholine]	2.8 µg/mL	–	WHI (DMBA in vivo), growth inhibition index ([1]; 4 × 100 mg/kg): 73%; EC90 inhibiting effect on Leishmania mexicana (promastigotes) [3]: 0.9 µg/mL; EC90 ([3]; molar): 1.5 µM
CCCCCCCCCCCCCCCCCCOCC(COP(=O)([O-])OCC[P+](C)(C)C)OC (racemic) [Example 25]	–	2.7 µg/mL (≈ 4.99 µM)	EC90 ([3]; Leishmania mexicana): 1.8 µg/mL; EC90 ([3]; Leishmania mexicana, molar): 3.3 ± 0.37 µM
CCCCCCCCCCCCCCCCCCOP(=O)([O-])OCC[As+](C)(C)C [Example 1, 2-[[(Octadecyloxy)hydroxyphosphenyl]oxy]-As,As,As-trimethyl ethyl arsonium inner salt]	3.2 µg/mL	–	EC90 (L1210-cell): 2.9 µg/mL; WHI (DMBA in vivo), growth inhibition index ([1]; 4 × 100 mg/kg): 112.8%; WHI (KB in vivo), growth inhibition index (KB cells [4]; 1 × 511 mg/kg): 42.9%; EC90 inhibiting effect on Leishmania mexicana (promastigotes) [3]: 0.8 µg/mL; EC90 ([3]; molar): 1.8 µM
CCCCCCCCCCCCCCCCOP(=O)([O-])OCC[As+](C)(C)C [Example 2, 2-[[(hexadecyloxy)hydroxyphosphinyl]oxy]-As,As,As-trimethyl ethyl arsonium inner salt]	27 µg/mL	–	–
CCCCCCCC/C=C\CCCCCCCCCCCCOP(=O)([O-])OCC[As+](C)(C)C [Example 3, 2-[[(cis-13-docosenyloxy)hydroxyphosphinyl]oxy-As,As,As-trimethylethylarsoniuminner salt]	> 10 µg/mL	–	LD50 [5]: > 1470 mg/kg
CCCCCCCCCCCCCCCCCCOP(=O)([O-])OCC[P+](C)(C)C [Example 4, 2-[[(octadecyloxy)hydroxyphosphinyl]oxy]-P,P,P-trimethyl ethyl phosphonium inner salt]	–	3.1 µg/mL	WHI (DMBA in vivo), growth inhibition index ([1]; 4 × 147 mg/kg): 108.7%; WHI (KB in vivo), growth inhibition index (KB cells [4]; 2 × 316 mg/kg): 111%; EC90 ([3]; Leishmania mexicana): 0.8 µg/mL; EC90 ([3]; Leishmania mexicana, molar): 1.8 ± 0.22 µM
CCCCCCCCCCCCCCCCOP(=O)([O-])OCC[P+](C)(C)C [Example 5, 2-[[(hexadecyloxy)hydroxyphosphinyl]oxy]-P,P,P-trimethyl ethyl phosphonium inner salt]	–	> 10 µg/mL	–
CCCCCCCC/C=C\CCCCCCCCCCCCOP(=O)([O-])OCC[P+](C)(C)C [Example 6, 2-[[(Cis-13-docosenyloxy) hydroxyphosphinyl]oxy]-P,P,P-trimethylethyl phosphonium inner salt]	–	> 10 µg/mL	WHI (DMBA in vivo), growth inhibition index ([1]; 4 × 147 mg/kg): 43.9%
CCCCCCCCCCCCCCCCCCOP(=O)([O-])OCC[As+](CC)(CC)CC [Example 7, 2-[[(Octadecyloxy)hydroxyphosphinyl]oxy]-As,As,As-triethyl ethyl arsonium inner salt]	3.0 µg/mL	–	–
CCCCCCCCCCCCCCCCOP(=O)([O-])OCC[As+](CC)(CC)CC [Example 8, 2-[[(Hexadecyloxy)hydroxyphosphinyl]oxy]-As,As,As-tri-ethyl ethyl arsonium inner salt]	> 10 µg/mL	–	–
CCCCCCCC/C=C\CCCCCCCCCCCCOP(=O)([O-])OCC[As+](CC)(CC)CC [Example 9, 2-[[Cis-13-docosenyloxy)hydroxyphosphinyl]oxy]-As,As,As-triethylethyl arsonium inner salt]	> 10 µg/mL	–	–
CCCCCCCCCCCCCCCCCCOP(=O)([O-])OCCC[As+](C)(C)C [Example 10, 3-[[(Octadecyloxy)hydroxyphosphinyl]oxy]-As,As,As-trimethyl propylarsonium inner salt]	5.8 µg/mL	–	WHI (KB in vivo), growth inhibition index (KB cells [4]; 2 × 316 mg/kg): 104%
CCCCCCCCCCCCCCCCOP(=O)([O-])OCCC[As+](C)(C)C [Example 11, 3-[[(Hexadecyloxy)hydroxyphosphinyl]oxy]-As,As,As-trimethyl propylarsonium inner salt]	> 10 µg/mL	–	–
CCCCCCCC/C=C\CCCCCCCCCCCCOP(=O)([O-])OCCC[As+](C)(C)C [Example 12, 3-[[(Cis-13-docosenyloxy)hydroxyphosphinyl]oxy]-As,As,As-trimethylpropyl arsonium inner salt]	> 10 µg/mL	–	–
CCCCCCCC/C=C\CCCCCCCCCCCCOP(=O)([O-])OCCC[P+](C)(C)C [Example 13, 3-[[(Cis-13-docosenyloxy)hydroxyphosphinyl]oxy]-P,P,P-tri-methylpropyl phosphonium inner salt]	–	> 10 µg/mL	–
CCCCCCCCCCCCCCCCCCOP(=O)([O-])OCCC[P+](C)(C)C [Example 14, 3-[[(Octadecyloxy)hydroxyphosphinyl]oxy]-P,P,P-trimethylpropyl phosphonium inner salt]	–	3 µg/mL	–
CCCCCCCCCCCCCCCCOP(=O)([O-])OCCC[P+](C)(C)C [Example 15, 3-[[(Hexadecyloxy)hydroxyphosphinyl]oxy]-P,P,P-trimethylpropyl phosphonium inner salt]	–	> 10 µg/mL	–
CCCCCCCCCCCCCCCCCCCOP(=O)([O-])OCC[P+](C)(C)C [Example 16, 3-[[(Nonadecyloxy)hydroxyphosphinyl]oxy]-P,P,P-trimethyl-ethyl phosphonium inner salt]	–	2.6 µg/mL	–
CCCCCCCCCCCCCCCCCCCCOP(=O)([O-])OCC[P+](C)(C)C [Example 17, 3-[[(Eicosyloxy)hydroxyphosphinyl]oxy]-P,P,P-trimethylethyl phosphonium inner salt]	–	3 µg/mL	–
CCCCCCCCCCCCCCCCCCCOP(=O)([O-])OCC[As+](C)(C)C [Example 18, 2-[[(Nonadecyloxy)hydroxyphosphinyl]oxy]-As,As,As-trimethethyl arsonium inner salt]	3.0 µg/mL	–	–
CCCCCCCCCCCCCCCCCCCCOP(=O)([O-])OCC[As+](C)(C)C [Example 19, 2-[[(Eicosyloxy)hydroxyphosphinyl]oxy]-As,As,As-trimethylethyl arsonium inner salt]	insoluble	–	–
CCCCCCCCCCCCCCCCCOP(=O)([O-])OCC[As+](C)(C)C [Example 20, 2-[[(Heptadecyloxy)hydroxyphosphinyl]oxy]-As,As,As-trimethylethyl arsonium inner salt]	3.2 µg/mL	–	–
CCCCCCCCCCCCCCCCCCOP(=O)([O-])OCC[P+](CC)(CC)c1ccccc1 [Example 21, 2-[[(Octadecyloxy)hydroxyphosphinyl]oxy]-P,P-diethyl-P-phenyl-ethyl phosphonium inner salt]	–	3.1 µg/mL	–
CCCCCCCC/C=C\CCCCCCCCCCCCOP(=O)([O-])OCC[P+](CC)(CC)c1ccccc1 [Example 22, 2-[[(Cis-13-docosenyloxy)hydroxyphosphinyl]oxy]-P,P-diethyl P-phenyl-ethyl phosphonium inner salt]	–	3.1 µg/mL	–
CCCCCCCCCCCCC1CCC(COP(=O)([O-])OCC[As+](C)(C)C)CC1 (stereo not drawn) [Example 23, 2-[[(4'-Dodecylcyclohexyl)methyloxy)hydroxyphosphinyl]oxy]As,As,As-trimethylethyl arsonium inner salt]	> 10 µg/mL	–	–
